Entries after “also recorded” stand apart in the source; their conditions may differ.

Data set [1] relates to fibrosis in a rat stifle joint immobilization model. Conditions: in vivo; cited from earlier work.
The test system of another data set is normal wound healing. Conditions: therapeutic dose levels; cited from earlier work.
Data set [2] is described as follows: Drug content of PLGA pellets. The data set is classed as physicochemical. On the procedure:
Drug-loaded PLGA pellets were made by the hot-melt extrusion method (Leelakanok et al., […]; Danyuo et al., 2017). The goal was to load the maximum amount of drug possible in the pellets, which varies depending on the physical and chemical properties of the drugs and their behavior during the hot melt extrusion process. The maximum doses carried in PLGA pellets were 120±3.6 μg SSZ/mg pellet, 126±5 μg BAPN/mg pellet, and 250±3.2 μg CHP/mg pellet. In vitro tests confirmed the drugs and pellets were not cytotoxic (FIG. 40).
To determine the drug content of the pellets, the pellets were individually dissolved in chloroform (500 μL) and then mixed with 1 mL water to let the active ingredient migrate to the aqueous phase for at least 30 minutes. Drug elution profiles were characterized in vitro prior to implantation. Elution was measured by incubation of the pellets in phosphate buffered saline (PBS) at 37° C. in a shaking incubator set to 300 rpm (FIGS. 30B, C, and D) (Leelakanok et al., 2018; Danyuo et al., 2017). At each time point, PBS was removed from the pellets and replaced with fresh PBS. The amount of BAPN released at each time point was determined using a Fluorescamine assay followed by fluorescent spectroscopy (excitation wavelength: 390 nm, emission wavelength: 475 nm). The amount of CHP released at each time point was determined by hydroxyproline assay with spectrophotometric detection at 560 nm. The amount of SSZ released at each time point was determined using UV spectroscopy at 359 nm.

For a further data set, the system named is stifle joint stiffness. Put plainly: Flexion-extension testing, rabbit stifle joint immobilization model. The data set is classed as in vivo. Conditions: 8 weeks after pellet implantation; for Maximum torque (joint stiffness): versus blank pellet control. The text has this:
(§1) The minimal number of animals was used to assess the specific aims of this study. Eight-rabbits were included in each of the treatment groups. […] Non-immobilized, untreated (normal) joints were included to provide normative baselines for joint mobility and histologic outcomes. The study included this normal group, as well as an immobilized group implanted with blank pellets (control), and immobilized groups treated with BAPN-, CHP-, or SSZ-loaded pellets. Joints were immobilized for 8 weeks to establish arthrofibrosis/capsule contracture as previously described (Nesterenko et al., 2009). Kirschner-wires (K-wires) were then removed and the various pellets implanted in the joint. After another 8 weeks the animals were euthanized, and the joints immediately tested for stiffness in extension and anterior-posterior (A-P) laxity. Capsule tissues were harvested for histology to evaluate in situ α-SMA expression and intima thickness, and for in vitro quantitation of cellular contractile activity and α-SMA expression.
Flexion-extension testing of normal and fibrotic joints was performed immediately after euthanasia, when limbs were disarticulated at the hip, stripped of skin and muscle, and fastened securely to a custom testing device equipped with a stepper motor and a 10 N load cell and controlled by a computer with a custom LabVIEW (National Instruments)-based program (FIG. 38) (Hildebrand et al., 2004; Nesterenko et al., 2009). Starting at 10° of extension, the limbs were driven to 170° of extension, and then returned to the starting position at a rotational velocity of 5°/s while continuously recording load and position. The starting extension angle was measured using a digital protractor (Barry Wixey Development) (FIG. 39). The peak torque at maximum extension (N-m) and dissipated energy (mJ) were derived as measures of joint stiffness. The increased hysteresis in immobilized joints arises from posterior capsule stiffening, which restricts extension, but not flexion.

Data set [3] has as its system joint capsule fibroblasts (JCFs). As to the kind of experiment: Collagen gel compaction assay with JCFs from treated joints. The data set is classed as cell-based, rabbit. Conditions: for Maximum compaction at 48 hours: cells from immobilized treated joints versus control joints; for Compaction rate: first 12 hours of incubation, versus control. As to the method: (§2) Capsule tissues were harvested and transferred to a T-75 flask with 15 mL of Dulbecco's Modified Eagle Medium/Ham's Formula-12 Nutrient Mixture (DMEM/F-12) media containing 10% fetal bovine serum (FBS), 1% Penn Strep, and 1% Amphotericin B, and incubated at 37° C. in a 5% O2, 5% CO2 atmosphere for about 5 days to allow cells to migrate out of the tissue and adhere to the plate. The JCFs were cultured until confluent (about 2 weeks) before analysis.
Collagen gel compaction assays were used to determine the contractile activity of JCFs isolated from variously treated rabbits (Yuda & McCulloch, 2018). Collagen gels were produced by combining 10×PBS containing phenol red, 1N NaOH, and rat tail type I collagen (2 mg/mL) (Invitrogen), and JCFs to give a final cell concentration of 1×10^6 cells/mL. Five hundred μL of the collagen gel mixture was added to each well in a 24-well plate and allowed to polymerize for 30 minutes in an incubator. After 30 minutes, 500 μL of DMEM containing 10% FBS and 50 μg/mL ascorbic acid was added to each well. The plates were then incubated for 24 hours to allow the cells to generate a state of isometric tension. After 24 hours, the medium was replaced with 500 μL of fresh DMEM containing 10% FBS and ascorbic acid. After 48 hours, the gels were detached from the walls of the wells using a sterile spatula to allow the cells to freely compact the gels. Images were acquired over the next 48 hours, and the changes in gel cross sectional area were measured with ImageJ.
DNA assays were used to control for well-well variations in cell numbers that could affect the rate and extent of gel compaction. After 48 hours of compaction, the medium was aspirated and the gels were washed with PBS thrice. Five hundred μL of 0.25 mg/mL collagenase was added and the plates incubated at 37° C. overnight. Cell pellets were collected by centrifuging at 500 g for 10 minutes. The supernatants were discarded and the pellets frozen at −80° C. overnight. After thawing at room temperature, the pellets were suspended in 1.0 mL of RNAse/DNAse-free water and then sonicated for 30 minutes. DNA concentrations were measured using 0.2 μg/mL of Hoechst 33342 in 10×TNE buffer (100 mM Tris, 2.0 M NaCl, and 10 mM EDTA at pH 7.4) with excitation and emission wavelengths at 360 nm and 460 nm respectively with calf thymus DNA as a standard. A calibration curve was generated to relate DNA concentration to the number of JCFs in the cultures.

The next data set relates to α-SMA expression in JCFs. Put plainly: α-SMA immunostaining of JCFs from treated joints. The data set is classed as cell-based, rabbit. Conditions: versus control. On the procedure: as §2
JCFs were seeded at a density of 10,000 cells per […] on UV-sterilized glass coverslips. After 48 hours, the medium was discarded and the samples were washed with Dulbecco's PBS (DPBS). The samples were fixed in 4% paraformaldehyde for 1 hour and then rinsed thrice with DPBS. The cells were then permeabilized with 0.5% Triton X for 5 minutes at room temperature and blocked with 10% goat serum for 30 minutes. The samples were then incubated with an anti-α-SMA mouse monoclonal antibody (Abcam) at a 1:100 dilution in DPBS overnight at 4° C. After washing in DPBS, the cells were blocked with goat serum for 30 minutes at 37° C. and then incubated with a fluorophore-conjugated goat anti-mouse IgG secondary antibody (488 excitation) (Life Technologies) at a 1:100 dilution for 30 minutes at 37° C. Cells were then washed thrice with DPBS, incubated with phalloidin at a 1:100 dilution for 30 minutes at 37° C., and then mounted with 4′,6-diamidino-2-phenylindole (DAPI)-containing mounting medium. Stained sections were imaged using an Olympus FV1000 confocal microscope. Percent positive α-SMA (immunostained/DAPI-stained×100) was evaluated in at least 4 microscope fields using ImageJ.

Data set [4] deals with PTOA after intra-articular fracture. Conditions: 12 months post-IAF; cited from earlier work.
Data set [5] has the same test system. Put plainly: Porcine intra-articular fracture (IAF) model. The data set is classed as in vivo, Yucatan minipig. Conditions: 6 months post-IAF; intra-articular injection, 2.5 mM; anatomically-reduced joints. The source says:
Yucatan Minipig Intra-articular Fracture Model. The Yucatan minipig model was developed to create an IAF of a reproducible severity without arthrotomy (Goetz et al., 2015). Under general anesthesia, an antero-medial approach to the hock joint, which is analogous to the human ankle joint, is made without disrupting the joint capsule. […] A stress-rising saw cut is made through the anterior tibial cortex, stopping 1-2 mm proximal to the subchondral bone. Two drill holes are made proximal to the saw cut into which a plate with a ball-joint is press fit. This ball joint interfaces with the instrumented sled on our impaction pendulum to rigidly support the tibia. The pendulum delivers a 40 J impact to the impaction tripod, driving the talus against the distal tibia causing a fracture of the distal tibia that is guided by the stress-rising saw cut. The result is a fracture fragment that consists of the anterior third of the distal tibial articular surface which is fixed using standard open reduction and internal fixation (ORIF) techniques (FIG. 12). […] In this study it is determined if lubricin gene therapy is an effective adjunct to amobarbital at the later time point, with or without residual incongruity; thus, all animals in this study survive to 12 months post-fracture. […]

The next data set concerns ACL function. Put plainly: Drawer test (A-P laxity), rabbit stifle joint immobilization model. The data set is classed as in vivo. Conditions: 8 weeks after pellet implantation; versus control.
Description: as §1, with “After another 8 weeks the animals were euthanized, and the joints immediately tested for stiffness in extension and anterior-posterior (A-P) laxity.” left out
After flexion-extension testing, a custom loading fixture was used to assess sagittal-plane laxity (drawer test), which is related to cruciate ligament integrity (Tochigi et al., 2011). […] Force and displacement data were continuously recorded through the sequence of tests, which consisted of three cycles to adjust leg placement for neutral starting position, followed by three cycles of data collection. […]

For the next data set, the system named is synovial intima. As to the kind of experiment: Capsule histology, synovial intimal thickness. Particulars: immobilization-induced increase, versus control. The data set is classed as in vivo, rabbit.
Description: as §1
Portions of the posterior capsule were fixed in 10% neutral buffered formalin, and then processed for paraffin histology. […] Stained slides were imaged using an Olympus VS110 Virtual Microscope System, and intimal thickness was quantified at 5 random areas in the synovial intima using ImageJ.

On to `N#CCCN` [BAPN, beta-amino propionitrile], for which the Development of fibrosis entry in data set [1] is on record as “prevented the development of fibrosis”. Further, the “Effect on normal wound healing” value in the data set on normal wound healing was “Neither CHP nor BAPN retarded normal wound healing”. In addition, the “Maximum dose carried in PLGA pellets” value in data set [2] is recorded as 126±5 μg BAPN/mg pellet. Moreover, the “Maximum torque (joint stiffness)” value in the data set with stifle joint stiffness is given as “Neither BAPN nor CHP had significant effects”. Further, in data set [3], the “Maximum compaction at 48 hours” value was “significantly lower” and the Compaction rate entry is reported as “somewhat lower than control”. Moreover, the “Maximum compaction at 48 hours” value in [3] (listed as beta-aminopropionitrile) is recorded as “significantly inhibited this effect”. The “Percent α-SMA positive” value in the data set on α-SMA expression in JCFs is “nearly significantly lower”.

On to `O=C(O)[C@@H]1C[C@@H](O)CN1` (relative stereo) [CHP, Cis-hydroxyproline], for which the “Effect on normal wound healing” value in the data set with normal wound healing was “Neither CHP nor BAPN retarded normal wound healing”. Further, the “Maximum dose carried in PLGA pellets” value in [2] is 250±3.2 μg CHP/mg pellet. For the same molecule, the “Maximum torque (joint stiffness)” value in the data set on stifle joint stiffness is reported as “Neither BAPN nor CHP had significant effects”. The Compaction rate entry in data set [3] is given as “somewhat lower than control”. Moreover, the “Percent α-SMA positive” value in the data set on α-SMA expression in JCFs is recorded as “only slightly lower than control”.

Consider `CCC1(CCC(C)C)C(=O)NC(=O)NC1=O` [amobarbital], for which the “PTOA progression at 12 months” value in [4] is “moderate degenerative changes were observed; also recorded: less effective”. Also, the “PTOA progression at 6 months” value in data set [5] was “dramatically forestalled the progression of PTOA; also recorded: highly effective in preventing changes”.

As to `O=C(O)c1cc(/N=N/c2ccc(S(=O)(=O)Nc3ccccn3)cc2)ccc1O` [SSZ, Sulfasalazine], the “Anterior drawer stiffness / A-P laxity” value in the data set with ACL function was “significantly stiffer than controls”. Further, the “Maximum dose carried in PLGA pellets” value in data set [2] stood at 120±3.6 μg SSZ/mg pellet. Besides, the figures for the “Maximum torque (joint stiffness)” value with stifle joint stiffness and with stifle joint stiffness (listed as sulfasalazine) were “significantly less stiff than controls” and “reduced stiffness”, respectively. For the same molecule, the Dissipated energy entry in the data set with stifle joint stiffness (versus control) is “significantly reduced”. Further, the Synovial intimal thickness result in the data set with synovial intima is on record as “inhibited significantly”; in the data set on synovial intima (listed as sulfasalazine) it was “significantly lower than control”. For the same molecule, the “Maximum compaction at 48 hours” value was “significantly lower” in data set [3] and “significantly inhibited this effect” in [3] (listed as Sulfasalazine). The Compaction rate entry in data set [3] is “significantly lower compaction rate”. The “Percent α-SMA positive” value with α-SMA expression in JCFs is “significantly lower than control”; in the data set with α-SMA expression in JCFs (listed as sulfasalazine), “significantly higher in control versus normal (p=0.0021) and versus sulfasalazine”.

(Values after US20230001017A1, “FORMULATION FOR DELIVERY OF LUBRICIN GENE” (University of lowa Research Foundation, priority 2019, published 2023).)
